Measured values as given in patent publication US20220031840A1, “Method of Treatment” (HaemaLogix Pty Ltd, priority 2018, published 2022).

How the values were obtained:
[1] = system: serum κFLC; assay: Serum κFLC pharmacodynamics (FreeLite assay); assay type: in vivo, human
Source text: (§1) Serum FLC levels were quantified using the FreeLite™ assay (The Binding Site Group Ltd, Birmingham, UK). […] Twenty-four-hour urine collection for urine protein electrophoresis immunofixation, urine FLC measurement (FreeLite™ assay), and creatinine clearance were collected on the day of infusion and on Day 45.

[2] = system: macrophage inhibitory factor (MIF); assay: Biomarker analysis: serum MIF; assay type: in vivo, human; details: adjusted for cytokine baseline differences
Protocol: (§2) Patient serum samples for biomarker analysis were collected approximately 30 minutes before infusion of kappamab and then at 6, 48, 192, and 1,080 hours after infusion for all patients. Samples were analysed in triplicate and serum levels of 48 human cytokines, chemokines, and growth factors were measured using the Bio-Plex Pro™ Human Cytokine 27-plex and 21-plex assays according to the manufacturer's recommendations (Bio-Rad, Carlsbad, Calif., USA; Cat No M10-0KCAF0Y, mg0-005KMII). Results were verified by repeating the 21-plex assay in triplicate and the samples were randomized across the assay plate. Pre-infusion samples were used as the baseline (t=0) for the analysis.
(§3) Multivariate analysis of the biomarker data was performed using R version 3.1.0 (2014-04-10) software (http://www.R-project.org/). Linear mixed effects modelling was completed using 1me4 (Bates et al. 2015). […]
(§4) To find significance between kappamab dose, time, and cytokine expression levels, we fitted a linear mixed-effects model that modelled cytokine fluorescence expression levels with fixed-effects terms for baseline cytokine fluorescence expression, kappamab dose (with 4 levels: 0.3, 1.0, 3.0, and 10 mg/kg), time (treated as factor with 5 levels), and cytokine with 48 levels, plus their interactions, with a random effect associated with patient (12 levels) and plex (2 levels). […]

[3] = system: serum M protein; assay: Serum M protein after kappamab; assay type: in vivo, human
[4] = system: urine κFLC; assay: 24-hour urine κFLC (FreeLite assay); assay type: in vivo, human
Source text: as §1

[5] = system: human anti-chimeric antibody (HACA) against kappamab; assay: Human anti-chimeric antibody (HACA) sandwich ELISA; assay type: in vivo; details: Day 45 post infusion, any patient
Protocol: Blood samples were taken at pre-infusion and at completion of the treatment phase (Day 45 post infusion) for measurement of HACA responses. The presence of HACA was measured using a validated sandwich ELISA. Briefly, kappamab was immobilized on ELISA plates and the captured antibodies were detected using biotinylated kappamab and ExtrAvidie-alkaline phosphatase (Sigma, USA) followed by the alkaline phosphatase (AP) substrate. Goat anti-human IgG was used as the positive control for the assay.

[6] = system: CXCL10; assay: Biomarker analysis: serum CXCL10; assay type: in vivo, human; details: adjusted for cytokine baseline differences
Protocol: as §2, §3, §4

[7] = system: HGF; assay: Biomarker analysis: serum HGF; assay type: in vivo, human; details: adjusted for cytokine baseline differences
Protocol: as §2, §3, §4

[8] = system: multiple myeloma; assay: Myeloma response, 18FDG-PET scan; assay type: in vivo, human
Protocol: FIG. 5. ^[…]-positron emission tomography (^18FDG-PET) scans for Patient 8 (who was receiving lenalidomide) prior to kappamab treatment (Panel A) and 30 days after intravenous infusion with 3.0 mg/kg kappamab (Panel B). ^18FDG-PET scanning was performed encompassing the skull vertex down to the knees on the combined PET/Computed Tomography (CT) scanner and a contemporaneous low-dose, non-contrast CT scan was performed for the purposes of attenuation correction and to provide anatomical correlation. […] In the spine, disease is most prominent within the sacrum. In the appendicular skeleton, disease is most pronounced within the proximal femur, where a prosthetic rod is in situ. No metabolically active disease is present outside the bones. In Panel B, ^18FDG-PET scanning was performed as before to assess the response 30 days after kappamab treatment. […] Low-grade uptake on the right lower lateral chest wall was […] and may reflect physiological muscular activity.
As patients only received a single infusion of kappamab it was not anticipated that any conventional responses would be observed.

kappamab: humanized form of K121 anti-KMA antibody; VH SEQ ID NO: 1, VL SEQ ID NO: 2
Serum κFLC higher than baseline ([1]; Patient 2, during the study): up to 136%
Serum κFLC higher than baseline ([1]; Patient 7, Day 1): 83%
Serum κFLC increase from baseline ([1]; Patient 7, Day 30): 178%
Serum κFLC increase from baseline ([1]; Patient 7, Day 45): 198%
Serum κFLC versus baseline ([1]; Patient 7, by Day 105 post infusion): returned to below baseline
Serum κFLC increase from baseline ([1]; Patient 13, 6 hours after IV infusion): 690%
Serum κFLC below baseline ([1]; Patient 13, Day 45, remained for 3 months): 55%
Patients with decreases in serum κFLC below baseline ([1]; after Day 15, 8/12 patients): 67%
Change in serum κFLC levels following IV infusion ([1]; all patients): increase
Serum κFLC versus baseline ([1]; by Day 45, majority of patients): generally similar to baseline values
Dose dependency between serum κFLC increase and kappamab concentration ([1]; in vivo): no clear dose dependency
Change in serum concentration [2]: dose-related decreases
Patients with minor dose-related decreases in serum M protein ([3]; 7/11 patients): 64%
Serum M protein response versus IMWG response criteria ([3]; in vivo): did not meet the IMWG response criteria
Patients with a decrease in urine κFLC ([4]; Day 1, 8/12 patients): 67%
Patients with a decrease in urine κFLC ([4]; Day 45 post infusion, 7/12 patients): 58%
Urine κFLC ([4]; Patient 1, Day 1): 144 mg/24 hours
Urine κFLC percent change from baseline ([4]; Patient 1, Day 1): −31%
Urine κFLC ([4]; Patient 1, Day 45): 107 mg/24 hours
Urine κFLC percent change from baseline ([4]; Patient 1, Day 45): −49%
Urine κFLC ([4]; Patient 2, Day 1): 1902 mg/24 hours
Urine κFLC percent change from baseline ([4]; Patient 2, Day 1): −27%
Urine κFLC percent change from baseline ([4]; Patient 2, Day 45): −13%
Urine κFLC ([4]; Patient 2, Day 45, exceeds upper limit of quantitation): > 2272 mg/24 hours
Urine κFLC ([4]; Patient 3, Day 1): 1143 mg/24 hours
Urine κFLC percent change from baseline ([4]; Patient 3, Day 1): −15%
Urine κFLC ([4]; Patient 3, Day 45): 5964 mg/24 hours
Urine κFLC percent change from baseline ([4]; Patient 3, Day 45): +343%
Urine κFLC ([4]; Patient 4, Day 1): 24 mg/24 hours
Urine κFLC percent change from baseline ([4]; Patient 4, Day 1): +85%
Urine κFLC ([4]; Patient 4, Day 45): 18 mg/24 hours
Urine κFLC percent change from baseline ([4]; Patient 4, Day 45): +38%
Urine κFLC ([4]; Patient 5, Day 1): 31 mg/24 hours
Urine κFLC percent change from baseline ([4]; Patient 5, Day 1): −68%
Urine κFLC ([4]; Patient 5, Day 45): 103 mg/24 hours
Urine κFLC percent change from baseline ([4]; Patient 5, Day 45): +6%
Urine κFLC ([4]; Patient 6, Day 1): 38 mg/24 hours
Urine κFLC percent change from baseline ([4]; Patient 6, Day 1): −17%
Urine κFLC ([4]; Patient 6, Day 45): 45 mg/24 hours
Urine κFLC percent change from baseline ([4]; Patient 6, Day 45): −2%
Urine κFLC ([4]; Patient 7, Day 1): 390 mg/24 hours
Urine κFLC percent change from baseline ([4]; Patient 7, Day 1): +25%
Urine κFLC ([4]; Patient 7, Day 45): 286 mg/24 hours
Urine κFLC percent change from baseline ([4]; Patient 7, Day 45): −8%
Urine κFLC ([4]; Patient 8, Day 1): 34 mg/24 hours
Urine κFLC percent change from baseline ([4]; Patient 8, Day 1): +278%
Urine κFLC ([4]; Patient 8, Day 45): 25 mg/24 hours
Urine κFLC percent change from baseline ([4]; Patient 8, Day 45): +178%
Urine κFLC ([4]; Patient 9, Day 1): 49 mg/24 hours
Urine κFLC percent change from baseline ([4]; Patient 9, Day 1): −13%
Urine κFLC ([4]; Patient 9, Day 45): 39 mg/24 hours
Urine κFLC percent change from baseline ([4]; Patient 9, Day 45): −30%
Urine κFLC ([4]; Patient 10, Day 1): 13 mg/24 hours
Urine κFLC percent change from baseline ([4]; Patient 10, Day 1): −69%
Urine κFLC ([4]; Patient 10, Day 45): 40 mg/24 hours
Urine κFLC percent change from baseline ([4]; Patient 10, Day 45): −5%
Urine κFLC ([4]; Patient 12, Day 1): 297 mg/24 hours
Urine κFLC percent change from baseline ([4]; Patient 12, Day 1): −9%
Urine κFLC ([4]; Patient 12, Day 45): 363 mg/24 hours
Urine κFLC percent change from baseline ([4]; Patient 12, Day 45): +11%
Urine κFLC ([4]; Patient 13, Day 1): 166 mg/24 hours
Urine κFLC percent change from baseline ([4]; Patient 13, Day 1): +12%
Urine κFLC ([4]; Patient 13, Day 45): 29 mg/24 hours
Urine κFLC percent change from baseline ([4]; Patient 13, Day 45): −80%
Dose-related trend in urinary excretion of κFLC ([4]; within each dose cohort): no consistent dose-related trend
HACA response to kappamab [5]: no antibody responses to kappamab were detected
Change in serum concentration [6]: dose-related decreases
Change in serum concentration [7]: dose-related decreases
18FDG-PET metabolic response ([8]; Patient 8 (receiving lenalidomide), 3 mg/kg, 30 days after infusion versus baseline scan, 3 mg/kg): favourable and almost complete metabolic response
Symptomatic improvement ([8]; Patient 8, 3 mg/kg): diminished bone pain and normalization of kidney function
